Like-named read-outs stand apart in the source and are kept apart here.
Columns and labels:
[1] = target: T1, human TRPV3 (Homo sapiens, UniProt Q8NET8); test: In vitro antagonism of recombinant human TRPV3 activation (FLIPR Tetra calcium assay); type: cell-based; conditions: HEK293 cells stably expressing human TRPV3, agonist 2-APB at 80 μM
T1 construct: expressed in transfected cells
T1 sequence (Q8NET8 1-790): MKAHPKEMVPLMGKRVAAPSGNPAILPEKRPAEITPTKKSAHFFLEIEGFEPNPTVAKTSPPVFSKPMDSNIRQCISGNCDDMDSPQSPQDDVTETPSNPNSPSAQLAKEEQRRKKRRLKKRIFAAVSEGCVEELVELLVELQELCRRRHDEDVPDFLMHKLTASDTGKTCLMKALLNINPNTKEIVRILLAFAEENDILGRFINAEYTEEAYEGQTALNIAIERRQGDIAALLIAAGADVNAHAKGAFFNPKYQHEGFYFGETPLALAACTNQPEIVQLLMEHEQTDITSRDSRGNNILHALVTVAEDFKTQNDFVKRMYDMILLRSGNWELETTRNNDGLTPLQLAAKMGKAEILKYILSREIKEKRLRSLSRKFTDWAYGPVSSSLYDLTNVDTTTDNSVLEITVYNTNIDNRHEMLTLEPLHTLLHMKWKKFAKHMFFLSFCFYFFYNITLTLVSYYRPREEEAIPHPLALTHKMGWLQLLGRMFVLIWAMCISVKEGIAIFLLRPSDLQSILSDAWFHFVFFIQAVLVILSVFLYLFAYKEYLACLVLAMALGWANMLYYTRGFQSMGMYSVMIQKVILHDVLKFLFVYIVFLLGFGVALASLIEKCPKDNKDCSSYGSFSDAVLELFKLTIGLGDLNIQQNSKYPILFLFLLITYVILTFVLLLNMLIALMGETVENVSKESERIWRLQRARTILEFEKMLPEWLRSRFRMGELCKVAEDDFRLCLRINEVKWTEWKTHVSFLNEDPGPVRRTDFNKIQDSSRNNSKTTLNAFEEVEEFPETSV
Procedure: Test compounds were evaluated for ability to antagonize the activation of recombinant human TRPV3 using FLIPR® Tetra cellular screening. Specifically, on the day prior to the experiment recombinant HEK293 cells that stably express human TRPV3 were removed from tissue culture flasks and plated in growth medium at 20,000 cells/well into Poly-d-lysine coated black/clear 384-well Plate (Corning, 3845) using a Multidrop® dispenser (ThermoScientific, Waltham, Mass.). Prior to the start of the assay, the medium was removed by aspiration, and cells were loaded with 30 μL no-wash FLIPR® Calcium-4 dye (λEX=470-495 nm, λEM=515-575 nm; Molecular Devices, Sunnyvale, Calif.). The cells were then incubated for 90-120 minutes in the dark prior to addition of the test compound.
A double-addition protocol was used. The test compound (i.e., the TRPV3 antagonist) was added at the 10 second time point, followed by the addition of a TRPV3 agonist three minutes later. Each test compound evaluated was first dissolved in DMSO to prepare a 10 mM stock solution. A solution (5×) of the test compound was then prepared in DPBS (Dulbecco's Phosphate Buffered Saline) and 10 μl, of that solution was added to the cells at a delivery rate of 40 μL/sec. The TRPV3 agonist used to activate human TRPV3 expressed by the […] was 2-aminoethoxy-diphenyl borate (2-APB; Tocris Cookson, Ellisville, Mo.) at 80 μM. Final assay volume was 50 μl, Total length of an experimental run was 10 minutes.
Changes in fluorescence were measured over time using the FLIPR® instrument. The intensity of the fluorescence was captured and digitally transferred to an interfaced computer. The maximum response minus minimum response was calculated and expressed as the percentage of the maximum 2-APB response in the absence of antagonist. The concentration of 2-APB corresponds to its EC80.
Table 1 reports the IC50 values measured for the test compounds as human TRPV3 antagonists. […] Actual measured values are shown parenthetically after the reported range. In most cases, the values reported are average values from at least two runs (i.e., n≧2).

[2] = In vitro human microsomal stability assay; type: in vitro ADME; conditions: for HUMAN MICROSOMAL STABILITY (% REMAINING AFTER 30 MINUTES): microsomes, 0.5 h, 0.5 μM, pH 7.4; for HUMAN […] (% REMAINING AFTER 30 MINUTES): human liver microsomes, 0.5 μM substrate, 0.25 mg/mL microsomal protein, pH 7.4, 37° C., NADPH
Procedure: (§1) Test compounds were evaluated for metabolic stability in an in vitro rat microsomal stability assay using rat liver microsomes (Sprague-Dawley, from BD Biosciences) and/or an in vitro human microsomal stability assay using human liver microsomes (Xenotech). […] Incubations were carried out at 37° C. with a final incubation volume of 135 μL. […] A 1.5 μL aliquot of reduced nicotine adenine disphosphonucleotide (NADPH) (Chem-Impex Int'L Inc., Lot 12532024) was also added to the time-zero plates.

[3] = In vitro rat microsomal stability assay; type: in vitro ADME, rat (Sprague-Dawley); conditions: for RAT MICROSOMAL STABILITY (% REMAINING AFTER 30 MINUTES): Sprague-Dawley, microsomes, 0.5 h, 0.5 μM, pH 7.4; for RAT […] (% REMAINING AFTER 30 MINUTES): rat liver microsomes (Sprague-Dawley), 0.5 μM substrate, 0.25 mg/mL microsomal protein, pH 7.4, 37° C., NADPH
Procedure: as §1

[4] = actual measured value shown parenthetically, in most cases average of at least two runs, read-out: IC50
[5] = reported range, read-out: IC50 (range class)

Structure (SMILES)	IC50 [1, 4]	RAT MICROSOMAL STABILITY (% REMAINING AFTER 30 MINUTES) [3]	further results
COC1CC(c2ccc(Cl)c(Cl)c2)([C@H](O)c2ccccn2)C1 (mixture of isomers) [Example 151, (S)-[1-(3,4-dichlorophenyl)-3-methoxycyclobutyl](pyridin-2-yl)methanol]	1.24 µM	<0.01%	HUMAN MICROSOMAL STABILITY (% REMAINING AFTER 30 MINUTES) [2]: 32%
OC1CC(c2ccc(C(F)(F)F)cc2)([C@H](O)c2ccccn2)C1 (mixture of isomers) [Example 166, 3-[(S)-hydroxy(pyridin-2-yl)methyl]-3-[4-(trifluoromethyl)phenyl]-cyclobutanol]	5.94 µM	>85%	HUMAN MICROSOMAL STABILITY (% REMAINING AFTER 30 MINUTES) [2]: >85%
OC1CC(c2ccc(C(F)(F)F)cc2)([C@@H](O)c2ccccn2)C1 (mixture of isomers) [Example 199, 3-[(R)-hydroxy(pyridin-2-yl)methyl]-3-[4-(trifluoromethyl)phenyl]-cyclobutanol]	> 20 µM	>85%	IC50 [1, 5]: > 20 µM; HUMAN MICROSOMAL STABILITY (% REMAINING AFTER 30 MINUTES) [2]: >85%
O[C@@H](c1ccccn1)[C@]1(c2cc(C(F)(F)F)ccn2)C[C@H](O)C1 (relative stereo) [Example 290, cis-3-[(R)-hydroxy(pyridin-2-yl)methyl]-3-[4-(trifluoromethyl)pyridin-2-yl]cyclobutanol]	–	–	IC50 [1, 5]: > 20 µM; HUMAN […] (% REMAINING AFTER 30 MINUTES) [2]: >85%; RAT […] (% REMAINING AFTER 30 MINUTES) [3]: 71%
OC(c1ccccn1)C1(C2=CCCOC2)CCC1 (single isomer, unassigned) [Example 269, [1-(5,6-dihydro-2H-pyran-3-yl)cyclobutyl](pyridin-2-yl)methanol]	–	12%	HUMAN MICROSOMAL STABILITY (% REMAINING AFTER 30 MINUTES) [2]: 40%
OC(c1ccccn1)C1(C2=COCCC2)CCC1 (single isomer, unassigned) [Example 270, [1-(3,4-dihydro-2H-pyran-5-yl)cyclobutyl](pyridine-2-yl)methanol]	–	0.48%	HUMAN MICROSOMAL STABILITY (% REMAINING AFTER 30 MINUTES) [2]: 17%
CC1(O)CC(c2cncc(C(F)(F)F)c2)(C(O)c2ccccn2)C1 (single isomer, unassigned) [Example 309]	3.05 µM	–	HUMAN MICROSOMAL STABILITY (% REMAINING AFTER 30 MINUTES) [2]: >85%
CCN(CC)c1ccc(C2(C(O)c3ccccn3)CCC2)cc1 (centres unmarked) [Example 18, {1-[4-(diethylamino)phenyl]cyclobutyl}(pyridin-2-yl)methanol]	0.74 µM	0.27%	–
OC(c1ncccn1)C1(c2cccc(OC(F)(F)F)c2)CCC1 (centres unmarked) [Example 37, pyrimidin-2-yl{1-[3-(trifluoromethoxy)phenyl]cyclobutyl}methanol]	0.83 µM	7.7%	–
OC(c1ncccn1)C1(c2ccc(Cl)c(Cl)c2)CCC1 (centres unmarked) [Example 38, [1-(3,4-dichlorophenyl)cyclobutyl] (pyrimidin-2-yl)methanol]	0.06 µM	9.5%	–
CC(c1cccc(C(F)(F)F)c1)C1(C(O)c2ccccn2)CCC1 (centres unmarked) [Example 54, pyridin-2-yl(1-{1-[3-(trifluoromethyl)phenyl]ethyl}cyclobutyl)methanol]	22 µM	0.21%	–
OC(C1CCc2cccnc21)C1(c2ccccc2OC(F)(F)F)CCC1 (stereo not drawn) [Example 193, (anti)-6,7-dihydro-5H-cyclopenta[b]pyridin-7-yl{1-[2-(trifluoromethoxy)-phenyl]cyclobutyl}methanol]	–	–	HUMAN […] (% REMAINING AFTER 30 MINUTES) [2]: 0.02%; RAT […] (% REMAINING AFTER 30 MINUTES) [3]: <0.01%
NC1CCCC1C(O)C1(c2cccc(OC(F)(F)F)c2)CCC1 (centres unmarked) [Example 208, (2-aminocyclopentyl) {1-[3-(trifluoromethoxy)phenyl]cyclobutyl}methanol]	2.06 µM	36%	–
NC1CCCCC1C(O)C1(c2ccc(OC(F)(F)F)cc2)CCC1 (centres unmarked) [Example 209, (2-aminocyclohexyl) {1-[4-(trifluoromethoxy)phenyl]cyclobutyl}methanol]	4.6 µM	–	–
NC1CCCCC1C(O)C1(c2cccc(OC(F)(F)F)c2)CCC1 (centres unmarked) [Example 210, (2-aminocyclohexyl) {1-[3-(trifluoromethoxy)phenyl]cyclobutyl}methanol]	3.31 µM	–	–
NC1CCCCC1C(O)C1(c2ccc(Cl)c(Cl)c2)CCC1 (centres unmarked) [Example 211, (2-aminocyclohexyl)[1-(3,4-dichlorophenyl)cyclobutyl]methanol]	6.17 µM	–	–
NC1CCCC1C(O)C1(c2ccccc2OC(F)(F)F)CCC1 (centres unmarked) [Example 214, (2-aminocyclopentyl) {1-[2-(trifluoromethoxy)phenyl]cyclobutyl}methanol]	1.22 µM	–	–
NC1CCCC1C(O)C1(c2ccc(Cl)c(Cl)c2)CCC1 (centres unmarked) [Example 215, (2-aminocyclopentyl)[1-(3,4-dichlorophenyl)cyclobutyl]methanol]	0.77 µM	–	–
N[C@H]1CCC[C@H]1[C@@H](O)C1(c2ccc(Cl)c(Cl)c2)CCC1 [Example 218, (R)-[(1R,2S)-2-aminocyclopentyl][1-(3,4-dichlorophenyl)cyclobutyl]-methanol]	1.73 µM	–	–
N[C@H]1CCC[C@@H]1[C@H](O)C1(c2ccc(Cl)c(Cl)c2)CCC1 [Example 219, (S)-[(1S,2S)-2-aminocyclopentyl][1-(3,4-dichlorophenyl)cyclobutyl]-methanol]	3.07 µM	–	–
OC(c1ccccn1)C1(C2CCOCC2)CCC1 (centres unmarked) [Example 239, pyridin-2-yl[1-(tetrahydro-2H-pyran-4-yl)cyclobutyl]methanol]	–	0.072%	HUMAN MICROSOMAL STABILITY (% REMAINING AFTER 30 MINUTES) [2]: 57%
OC(c1ccccn1)C1(C2=CCOCC2)CCC1 (centres unmarked) [Example 252, [1-(3,6-dihydro-2H-pyran-4-yl)cyclobutyl](pyridin-2-yl)methanol]	> 20 µM	–	IC50 [1, 5]: > 20 µM
CC1(O)CC(c2cccc(OC(F)(F)F)c2)(C(O)c2ccccn2)C1 [Example 263, trans-3-[(S)-hydroxy(pyridin-2-yl)methyl]-1-methyl-3-[3-(trifluoromethoxy)phenyl]cyclobutanol]	2.8 µM	>85%	–
CC1(O)CC(c2ccc(OC(F)(F)F)cc2)(C(O)c2ncccn2)C1 [Example 311, (trans)-3-((R)-hydroxy(pyrimidin-2-yl)methyl)-1-methyl-3-(4-(trifluoromethoxy)phenyl)cyclobutanol]	> 20 µM	>85%	IC50 [1, 5]: > 20 µM

From patent US8772499B2, “TRPV3 modulators” (AbbVie Inc., priority 2011, dated 2014)
